Reference: the NIST ThermoML archive (doi:10.1016/j.jct.2003.11.008)
± gives the expanded uncertainty stated by the source.

How the values were obtained:
[1] = refractive index (Na D-line) (dimensionless); settings: 318.15 K; 101.33 kPa; Liquid; Standard Abbe refractometry
[2] = 318.15 K; 101.33 kPa; Liquid; Vibrating tube method
[3] = excess molar enthalpy (molar enthalpy of mixing); xn = mol fraction of the nth substance listed; settings: 318.15 K, 101.3 kPa, Liquid
[4] = xn = mol fraction of the nth substance listed; settings: 318.15 K, 101.3 kPa, Liquid

CCCCOC(C)=O [butyl ethanoate]
Settings | mass density [kg/m3] | refractive index
[1] | – | 1.3825 ± 0.0007
[2] | 855.39 ± 0.17 | –

COC(C)=O [methyl ethanoate]
Settings | mass density [kg/m3] | refractive index
[1] | – | 1.349 ± 0.0007
[2] | 900.1 ± 0.24 | –

CCCCCCC [heptane]
Settings | mass density [kg/m3] | refractive index
[1] | – | 1.3748 ± 0.0007
[2] | 662.04 ± 0.27 | –

CCOC(C)=O [ethyl acetate]
Settings | mass density [kg/m3] | refractive index
[1] | – | 1.3597 ± 0.0007
[2] | 869.54 ± 0.24 | –

CCCCCCCCC [nonane]
Settings | mass density [kg/m3] | refractive index
[1] | – | 1.3939 ± 0.0008
[2] | 698.06 ± 0.4 | –

CCCCCCCCCCCCCCC [pentadecane]
Settings | mass density [kg/m3] | refractive index
[1] | – | 1.4212 ± 0.0008
[2] | 750.9 ± 0.78 | –

CCCCCCCCCCCCCCCCC [heptadecane]
Settings | mass density [kg/m3] | refractive index
[1] | – | 1.4268 ± 0.0008
[2] | 760.8 ± 0.79 | –

CCCCCCCCCCC [undecane]
Settings | mass density [kg/m3] | refractive index
[1] | – | 1.4063 ± 0.0008
[2] | 721.76 ± 0.41 | –

CCCCCOC(C)=O [pentyl ethanoate]
Settings | mass density [kg/m3] | refractive index
[1] | – | 1.391 ± 0.0008
[2] | 852.93 ± 0.45 | –

CCCCCCCCCCCCCCCCC [heptadecane] + CCCCCOC(C)=O
Settings | excess molar enthalpy [kcal/mol] | excess molar volume [m3/mol]
[3], x2 = 0.0881 | 0.101 ± 0.00194 | –
[3], x2 = 0.1856 | 0.188 ± 0.00335 | –
[3], x2 = 0.2815 | 0.259 ± 0.0043 | –
[3], x2 = 0.3678 | 0.306 ± 0.00502 | –
[3], x2 = 0.4492 | 0.331 ± 0.0055 | –
[3], x2 = 0.5202 | 0.339 ± 0.00574 | –
[3], x2 = 0.5818 | 0.337 ± 0.0055 | –
[3], x2 = 0.6246 | 0.326 ± 0.0055 | –
[3], x2 = 0.6651 | 0.308 ± 0.00502 | –
[3], x2 = 0.7105 | 0.285 ± 0.00478 | –
[3], x2 = 0.7575 | 0.258 ± 0.0043 | –
[3], x2 = 0.807 | 0.223 ± 0.00382 | –
[3], x2 = 0.8571 | 0.18 ± 0.00311 | –
[3], x2 = 0.905 | 0.13 ± 0.00239 | –
[3], x2 = 0.9532 | 0.0725 ± 0.00151 | –
[4], x2 = 0.1194 | – | 3.74e-07 ± 1.7e-08
[4], x2 = 0.1753 | – | 5.21e-07 ± 1.8e-08
[4], x2 = 0.2989 | – | 7.64e-07 ± 1.9e-08
[4], x2 = 0.3689 | – | 8.67e-07 ± 2e-08
[4], x2 = 0.421 | – | 9.1e-07 ± 2e-08
[4], x2 = 0.4657 | – | 9.43e-07 ± 2e-08
[4], x2 = 0.5081 | – | 9.6e-07 ± 2e-08
[4], x2 = 0.5464 | – | 9.64e-07 ± 2e-08
[4], x2 = 0.6072 | – | 9.39e-07 ± 2e-08
[4], x2 = 0.6743 | – | 8.96e-07 ± 2e-08
[4], x2 = 0.7316 | – | 8.42e-07 ± 1.9e-08
[4], x2 = 0.7894 | – | 7.23e-07 ± 1.9e-08
[4], x2 = 0.8384 | – | 6.22e-07 ± 1.8e-08
[4], x2 = 0.8842 | – | 4.84e-07 ± 1.8e-08
[4], x2 = 0.9288 | – | 3.29e-07 ± 1.7e-08
[4], x2 = 0.9702 | – | 1.42e-07 ± 1.6e-08

CCCOC(C)=O [propyl ethanoate]
Settings | mass density [kg/m3] | refractive index
[1] | – | 1.3721 ± 0.0008
[2] | 859.78 ± 0.88 | –

CCCCCCCCC [nonane] + CCOC(C)=O
Settings | excess molar enthalpy [kcal/mol] | excess molar volume [m3/mol]
[3], x2 = 0.0596 | 0.0869 ± 0.00174 | –
[3], x2 = 0.131 | 0.172 ± 0.00311 | –
[3], x2 = 0.2117 | 0.253 ± 0.0043 | –
[3], x2 = 0.295 | 0.316 ± 0.00526 | –
[3], x2 = 0.3664 | 0.362 ± 0.00598 | –
[3], x2 = 0.436 | 0.394 ± 0.00645 | –
[3], x2 = 0.4899 | 0.406 ± 0.00669 | –
[3], x2 = 0.5447 | 0.408 ± 0.00669 | –
[3], x2 = 0.5881 | 0.399 ± 0.00645 | –
[3], x2 = 0.6166 | 0.391 ± 0.00645 | –
[3], x2 = 0.629 | 0.383 ± 0.00621 | –
[3], x2 = 0.6629 | 0.373 ± 0.00621 | –
[3], x2 = 0.7061 | 0.347 ± 0.00574 | –
[3], x2 = 0.752 | 0.32 ± 0.00526 | –
[3], x2 = 0.7991 | 0.277 ± 0.00454 | –
[3], x2 = 0.8421 | 0.235 ± 0.00406 | –
[3], x2 = 0.8875 | 0.177 ± 0.00311 | –
[3], x2 = 0.9312 | 0.118 ± 0.00222 | –
[3], x2 = 0.9672 | 0.0591 ± 0.00131 | –
[4], x2 = 0.0916 | – | 4.94e-07 ± 1.8e-08
[4], x2 = 0.1769 | – | 8.53e-07 ± 1.9e-08
[4], x2 = 0.2442 | – | 1.049e-06 ± 2e-08
[4], x2 = 0.3108 | – | 1.228e-06 ± 2.1e-08
[4], x2 = 0.3462 | – | 1.289e-06 ± 2.1e-08
[4], x2 = 0.4363 | – | 1.418e-06 ± 2.2e-08
[4], x2 = 0.4938 | – | 1.446e-06 ± 2.2e-08
[4], x2 = 0.5469 | – | 1.447e-06 ± 2.2e-08
[4], x2 = 0.5934 | – | 1.426e-06 ± 2.2e-08
[4], x2 = 0.6418 | – | 1.361e-06 ± 2.2e-08
[4], x2 = 0.6869 | – | 1.292e-06 ± 2.2e-08
[4], x2 = 0.7308 | – | 1.202e-06 ± 2.1e-08
[4], x2 = 0.7614 | – | 1.142e-06 ± 2.1e-08
[4], x2 = 0.8417 | – | 8.49e-07 ± 1.9e-08
[4], x2 = 0.9044 | – | 5.78e-07 ± 1.8e-08
[4], x2 = 0.9558 | – | 2.94e-07 ± 1.7e-08

CCCCCCCCCCCCC [tridecane] + CCCOC(C)=O
Settings | excess molar enthalpy [kcal/mol] | excess molar volume [m3/mol]
[3], x2 = 0.087 | 0.103 ± 0.00198 | –
[3], x2 = 0.1659 | 0.187 ± 0.00335 | –
[3], x2 = 0.2413 | 0.26 ± 0.0043 | –
[3], x2 = 0.3093 | 0.312 ± 0.00526 | –
[3], x2 = 0.3709 | 0.349 ± 0.00574 | –
[3], x2 = 0.4257 | 0.372 ± 0.00621 | –
[3], x2 = 0.477 | 0.386 ± 0.00645 | –
[3], x2 = 0.5193 | 0.39 ± 0.00645 | –
[3], x2 = 0.5602 | 0.391 ± 0.00645 | –
[3], x2 = 0.6296 | 0.379 ± 0.00621 | –
[3], x2 = 0.6706 | 0.367 ± 0.00598 | –
[3], x2 = 0.716 | 0.346 ± 0.00574 | –
[3], x2 = 0.7628 | 0.317 ± 0.00526 | –
[3], x2 = 0.809 | 0.272 ± 0.00454 | –
[3], x2 = 0.8594 | 0.218 ± 0.00382 | –
[3], x2 = 0.9097 | 0.158 ± 0.00287 | –
[3], x2 = 0.9585 | 0.0781 ± 0.00163 | –
[4], x2 = 0.1139 | – | 4.77e-07 ± 1.8e-08
[4], x2 = 0.1844 | – | 7.09e-07 ± 1.9e-08
[4], x2 = 0.2748 | – | 9.32e-07 ± 2e-08
[4], x2 = 0.3425 | – | 1.072e-06 ± 2e-08
[4], x2 = 0.4123 | – | 1.16e-06 ± 2.1e-08
[4], x2 = 0.4772 | – | 1.205e-06 ± 2.1e-08
[4], x2 = 0.5337 | – | 1.232e-06 ± 2.1e-08
[4], x2 = 0.5864 | – | 1.216e-06 ± 2.1e-08
[4], x2 = 0.6311 | – | 1.183e-06 ± 2.1e-08
[4], x2 = 0.6791 | – | 1.139e-06 ± 2.1e-08
[4], x2 = 0.722 | – | 1.069e-06 ± 2e-08
[4], x2 = 0.7535 | – | 1.012e-06 ± 2e-08
[4], x2 = 0.7862 | – | 9.31e-07 ± 2e-08
[4], x2 = 0.8631 | – | 6.98e-07 ± 1.9e-08
[4], x2 = 0.9199 | – | 4.58e-07 ± 1.8e-08
[4], x2 = 0.9642 | – | 2.27e-07 ± 1.7e-08
